Test results reported in patent US10316017B2, “COT modulators and methods of use thereof” (Gilead Sciences, Inc., priority 2015, dated 2019).
Like-named read-outs stand apart in the source and are kept apart here.

Assays:
[1] = tested on: TNFα production in LPS-stimulated human monocytes; experiment: Cot Monocyte TNFα Cell Based Assay; details: Homo sapiens, Monocyte, read-out: EC50 TNF
How it was run: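 TR-FRET read-out of total secreted TNFα, normalized as % control (unstimulated = 0%, LPS-stimulated = 100%). Cells (5,000/well) were exposed to compound 1 h at 37 °C, then to 50 pg/ml LPS for a further 4 h.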

[2] = molecular target: T1, human Cot catalytic domain (30-397 amino acids) (Homo sapiens, UniProt P41279); experiment: High Throughput Cot Biochemical Assay (KinEASE TR-FRET); details: read-out: IC50 HTRF
T1 construct: Purified recombinant human Cot catalytic domain (30-397 amino acids) was purchased from Cama Biosciences; purchased Cama Biosciences (so in the source)
How it was run: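 TR-FRET readout: Eu-labeled phospho-specific antibody binds XL665-tagged STK3 peptide after phosphorylation by Cot (aa 30-397, 5 nM). Conditions: 400 μM ATP, 1 μM peptide, MOPS pH 7.0 buffer with MgOAc, DTT, BSA, NP-40, glycerol; 0.1% DMSO.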

[3] = TNFα in LPS-stimulated human monocytes
[4] = Cot KinEASE TR-FRET (HTRF) biochemical assay, 400 μM ATP
[5] = LPS-stimulated human monocytes, TNFα TR-FRET
[6] = Cot KinEASE TR-FRET, 400 μM ATP
[7] = Cot biochemical HTRF (KinEASE TR-FRET) assay

T1 sequence (P41279 30-397): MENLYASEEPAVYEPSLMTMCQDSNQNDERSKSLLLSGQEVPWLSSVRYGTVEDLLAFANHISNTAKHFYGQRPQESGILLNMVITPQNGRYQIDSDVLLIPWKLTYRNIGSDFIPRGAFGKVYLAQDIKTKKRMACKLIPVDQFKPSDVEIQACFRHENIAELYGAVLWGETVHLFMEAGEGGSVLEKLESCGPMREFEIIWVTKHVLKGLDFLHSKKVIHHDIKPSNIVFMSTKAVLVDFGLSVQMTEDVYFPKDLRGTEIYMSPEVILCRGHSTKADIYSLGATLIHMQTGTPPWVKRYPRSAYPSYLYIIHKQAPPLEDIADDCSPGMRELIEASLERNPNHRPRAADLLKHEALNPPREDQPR

Row | EC50 [1, 3] [nM] | IC50 [2, 4] [nM] | EC50 [1, 5] [nM] | IC50 [2, 6] [nM] | IC50 [2, 7] [nM] | Compound
1 | 55 | 2 |  |  |  | [2H]C([2H])(Nc1c(C#N)cnc2c(Cl)cc(N[C@@]([2H])(c3cccc(C#N)c3)c3cn(C4CC4)nn3)cc12)C(C)(C)C [Example 239, (S)-8-chloro-6-(((3-cyanophenyl)(1-cyclopropyl-1H-1,2,3-triazol-4-yl)methyl-d)amino)-4-((2,2-dimethylpropyl-1,1-d2)amino)quinoline-3-carbonitrile]
2 |  |  | 566 | 10 |  | Cc1c([C@H](Nc2cc(Cl)c3ncc(C#N)c(NCC(C)(C)C)c3c2)c2cn(C3(C(F)(F)F)CC3)nn2)cccc1-n1cccn1 [Example 1038, (S)-8-chloro-6-(((2-methyl-3-(1H-pyrazol-1-yl)phenyl)(1-(1-(trifluoromethyl)cyclopropyl)-1H-1,2,3-triazo1-4-yl)methyl)amino)-4-(neopentylamino)quinoline-3-carbonitrile]
3 | 978 |  |  |  | 13 | N#Cc1cnc2c(Cl)cc(N[C@H](c3cn(C4COC4)nn3)c3ccc(F)cc3F)cc2c1Nc1cnc(F)c(F)c1 [Example 467, (S)-8-chloro-6-(((2,4-difluorophenyl)(1-(oxetan-3-yl)-1H-1,2,3-triazol-4-yl)methyl)amino)-4-((5,6-difluoropyridin-3-yl)amino)quinoline-3-carbonitrile]
4 | 2240 |  |  |  | 444 | N#Cc1cnc2c(Cl)cc(N[C@@H](c3ccc(Cl)cc3)c3cn(C4CCN(C5COC5)CC4)nn3)cc2c1Nc1ccc(O)c(Cl)c1 [Example 700, (S)-8-chloro-4-((3-chloro-4-hydroxyphenyl)amino)-6-(((4-chlorophenyl)(1-(1-(oxetan-3-yl)piperidin-4-yl)-1H-1,2,3-triazol-4-yl)methyl)amino) quinoline-3-carbonitrile]
5 | 244 | 22 |  |  |  | [2H][C@@](Nc1cc(Cl)c2ncc(C#N)c(NCC(C)(C)C)c2c1)(c1cn(C23CC(C2)C3)nn1)c1ccccc1Cl [Example 86, (S)-6-(((1-(bicyclo[1.1.1]pentan-1-yl)-1H-1,2,3-triazol-4-yl)(2-chlorophenyl)methyl-d)amino)-8-chloro-4-(neopentylamino) quinoline-3-carbonitrile]
6 | > 10000 | 941 |  |  |  | [2H][C@](Nc1cc(Cl)c2ncc(C#N)c(N[C@H](c3ccccc3)[C@H]3C[C@@H]3C#N)c2c1)(c1ccc(F)cc1)c1cn(C2CC2)nn1 [Example 161, 8-chloro-4-(((S)-((1S,2S)-2-cyanocyclopropyl) (phenyl)methyl)amino)-6-(((S)-(1-cyclopropyl-1H-1,2,3-triazol-4-yl)(4-fluorophenyl)methyl-d)amino) quinoline-3-carbonitrile]
7 | 4560 | 434 |  |  |  | [2H][C@](Nc1cc(Cl)c2ncc(C#N)c(NCCc3cccnc3)c2c1)(c1ccc(F)cc1)c1cn(C2CC2)nn1 [Example 271, (S)-8-chloro-6-(((1-cyclopropyl-1H-1,2,3-triazol-4-yl)(4-fluorophenyl)methyl-d)amino)-4-((2-(pyridin-3-yl)ethyl)amino)quinoline-3-carbonitrile]
8 | 71 | 4 |  |  |  | CC(C)(C)N1CCC(n2cc([C@@H](Nc3cc(Cl)c4ncc(C#N)c(Nc5cnc(F)c(Cl)c5)c4c3)c3ccccc3)nn2)CC1 [Compound 10]
9 | 1930 |  |  |  | 23 | N#Cc1cnc2c(Cl)cc(N[C@H](c3c[nH]nn3)c3ccccc3F)cc2c1Nc1cnc(F)c(F)c1 [Example 447, (S)-8-chloro-4-((5,6-difluoropyridin-3-yl)amino)-6-(((2-fluorophenyl) (1H-1,2,3-triazol-4-yl)methyl)amino)quinoline-3-carbonitrile]
10 | 143 |  |  |  | 2 | CN(c1cccc([C@H](Nc2cc(Cl)c3ncc(C#N)c(Nc4ccc(F)c(Cl)c4)c3c2)c2cn(C3CCN(C(C)(C)C)CC3)nn2)c1)S(C)(=O)=O [Example 568, (S)-N-(3-((1-(1-(tert-butyl)piperidin-4-yl)-1H-1,2,3-triazol-4-yl)((8-chloro-4-((3-chloro-4-fluorophenyl)amino)-3-cyanoquinolin-6-yl)amino)methyl)phenyl)-N-methylmethanesulfonamide]
11 | 124 | 3 |  |  |  | CN(c1cccc([C@H](Nc2cc(C#N)c3ncc(C#N)c(NCC(C)(C)C)c3c2)c2cn(C3CC3)nn2)c1)S(C)(=O)=O [Example 69, (S)-N-(3-((1-cyclopropyl-1H-1,2,3-triazol-4-yl)((3,8-dicyano-4-(neopentylamino)quinolin-6-yl)amino)methyl)phenyl)-N-methylmethanesulfonamide]
12 | 16100 |  |  |  | 317 | CC(C)(C)N1CCC(n2cc([C@@H](Nc3cc(Cl)c4ncc(C#N)c(NCC5CC5)c4c3)c3ccc(Cl)cc3)nn2)CC1 [Example 698, (S)-6-(((1-(1-(tert-butyl)piperidin-4-yl)-1H-1,2,3-triazol-4-yl)(4-chlorophenyl)methyl)amino)-8-chloro-4-((cyclopropylmethyl)amino) quinoline-3-carbonitrile]
13 | 5080 | 951 |  |  |  | [2H][C@](Nc1cc(Cl)c2ncc(C#N)c(NC3(C)CC3)c2c1)(c1ccc(F)cc1)c1cn(C2CC2)nn1 [Example 241, (S)-8-chloro-6-(((1-cyclopropyl-1H-1,2,3-triazol-4-yl)(4-fluorophenyl)methyl-d)amino)-4-((1-methylcyclopropyl)amino) quinoline-3-carbonitrile]
14 | 12500 |  |  |  | 355 | Cc1cccc(CNc2c(C#N)cnc3c(Cl)cc(N[C@@H](c4ccc(Cl)cc4)c4cn(C5CCN(C(C)(C)C)CC5)nn4)cc23)c1 [Example 679, (S)-6-(((1-(1-(tert-butyl)piperidin-4-yl)-1H-1,2,3-triazol-4-yl)(4-chlorophenyl)methyl)amino)-8-chloro-4-((3-methylbenzyl)amino)quinoline-3-carbonitrile]
15 | 3150 |  |  |  | 173 | COc1ccc(Nc2c(C#N)cnc3c(Cl)cc(N[C@@H](c4ccccc4)c4cn(C(C)(C)C)nn4)cc23)cn1 [Example 468, (S)-6-(((1-(tert-butyl)-1H-1,2,3-triazol-4-yl)(phenyl)methyl)amino)-8-chloro-4-((6-methoxypyridin-3-yl)amino)quinoline-3-carbonitrile]
16 | 260 | 9 |  |  |  | [2H][C@](Nc1cc(Cl)c2ncc(C#N)c(NCC3(C)CCOCC3)c2c1)(c1ccc(F)cc1)c1cn(C2CC2)nn1 [Example 333, (S)-8-chloro-6-(((1-cyclopropyl-1H-1,2,3-triazol-4-yl)(4-fluorophenyl)methyl-d)amino)-4-(((4-methyltetrahydro-2H-pyran-4-yl)methyl)amino) quinoline-3-carbonitrile]
17 |  |  | 93 | 4 |  | [2H][C@](Nc1cc(C#N)c2ncc(C#N)c(NC3CCCC3(C)C)c2c1)(c1ccc(F)cc1)c1cn(C2CC2)nn1 (stereo partly drawn) [Example 1034, 6-(((S)-(1-cyclopropyl-1H-1,2,3-triazol-4-yl)(4-fluorophenyl)methyl-d)amino)-4-((2,2-dimethylcyclopentyl)amino) quinoline-3,8-dicarbonitrile]
18 | 142 | 6 |  |  |  | [2H][C@](Nc1cc(Cl)c2ncc(C#N)c(NCC(C)(C)CC#N)c2c1)(c1ccc(F)cc1)c1cn(C2CC2)nn1 [Example 134, (S)-8-chloro-4-((3-cyano-2,2-dimethylpropyl)amino)-6-(((1-cyclopropyl-1H-1,2,3-triazol-4-yl)(4-fluorophenyl)methyl-d)amino)quinoline-3-carbonitrile]
19 | 8640 |  |  |  | 333 | CC(C)(C)N1CCC(n2cc([C@@H](Nc3cc(Cl)c4ncc(C#N)c(Nc5ccc(F)cc5C#N)c4c3)c3ccccc3)nn2)CC1 [Example 471, (S)-6-(((1-(1-(tert-butyl)piperidin-4-yl)-1H-1,2,3-triazol-4-yl)(phenyl)methyl)amino)-8-chloro-4-((2-cyano-4-fluorophenyl)amino) quinoline-3-carbonitrile]
20 | 141 |  |  |  | 8 | Cn1cc([C@@H](Nc2cc(Cl)c3ncc(C#N)c(Nc4ccc(F)c(Cl)c4)c3c2)c2cccc(CN3CCCC3)c2)nn1 [Example 841, (S)-8-chloro-4-((3-chloro-4-fluorophenyl)amino)-6-(((1-methyl-1H-1,2,3-triazol-4-yl)(3-(pyrrolidin-1-ylmethyl)phenyl)methyl)amino) quinoline-3-carbonitrile]
21 | > 10000 |  |  |  | 1490 | N#Cc1cnc2c(Cl)cc(N[C@@H](c3ccc(F)cc3)c3c[nH]nn3)cc2c1NCC1COC1 [Example 421, (S)-8-chloro-6-(((4-fluorophenyl)(1H-1,2,3-triazol-4-yl)methyl)amino)-4-((oxetan-3-ylmethyl)amino)quinoline-3-carbonitrile]
22 | 38 | 2 |  |  |  | [2H][C@@](Nc1cc(Cl)c2ncc(C#N)c(NCC(C)(C)C)c2c1)(c1cn(C2CC2)nn1)c1cccc(C#N)c1C [Example 197, (S)-8-chloro-6-(((3-cyano-2-methylphenyl) (1-cyclopropyl-1H-1,2,3-triazol-4-yl)methyl-d)amino)-4-(neopentylamino) quinoline-3-carbonitrile]
23 | 1950 |  |  |  | 160 | N#Cc1cnc2c(Cl)cc(N[C@H](c3c[nH]nn3)c3ccccc3C(F)(F)F)cc2c1Nc1cnc(F)c(F)c1 [Example 502, (S)-6-(((1H-1,2,3-triazol-4-yl)(2-(trifluoromethyl)phenyl)methyl)amino)-8-chloro-4-((5,6-difluoropyridin-3-yl)amino)quinoline-3-carbonitrile]
